This is an account of results in patent US12544395B2, “Combination compositions comprising a beta-lactamase inhibitor and uses thereof” (priority 2018, dated 2026).

Broadly, the MIC50 is an inhibitory concentration at the 50% level, which refers to growth in some studies and to a panel of isolates in others. A word on the MIC90: it is an inhibitory concentration at the 90% level, which refers to growth in some studies and to a panel of isolates in others. For orientation: solubility means the dissolved amount per volume that the medium holds.

Values after ≈ are worked out from the molar mass of the structure shown.

For data set [1], the system named is panel of ESBL-producing Enterobacteriaceae (40 strains). Briefly: Broth microdilution MIC50/MIC90 summary over the panel. The class given is cell-based. On the technique in general: In broth dilution the organism is exposed to a series of concentrations in liquid medium.
Another data set relates to E. coli 1924. Briefly: Broth microdilution MIC (strain enzymes: TEM-12). The class given is cell-based. The following applies: alone.
The subject of another data set is E. coli 2806. Put plainly: Broth microdilution MIC (strain enzymes: SHV-12, TEM-1). The following applies: alone. The format is cell-based.
The test system of the next data set is E. coli 3174. Put plainly: Broth microdilution MIC (strain enzymes: TEM-1, CTXM-15). The format is cell-based. To be noted: alone.
The subject of the next data set is E. coli 3327. Briefly: Broth microdilution MIC (strain enzymes: TEM-1, SHV-12). The format is cell-based. The following applies: alone.
Another data set concerns E. coli SI-AIRT-4. Briefly: Broth microdilution MIC (strain enzymes: TEM-1). To be noted: alone. The class given is cell-based.
A further data set has as its system E. coli SI-NO36. Briefly: Broth microdilution MIC (strain enzymes: SHV-11, TEM-1). The class given is cell-based. The following applies: alone.
The next data set has as its system E. coli SI-PBLII. Put plainly: Broth microdilution MIC (strain enzymes: CTX-M2, TEM-1). The format is cell-based. To be noted: alone.
The test system of another data set is E. coli SI-V502. Put plainly: Broth microdilution MIC (strain enzymes: TEM-29, CTX-M15). The class given is cell-based. The following applies: alone.
For a further data set, the system named is E. coli 25922. Briefly: Broth microdilution MIC (strain enzymes: None detected). The following applies: alone. The class given is cell-based.
For the next data set, the system named is K. oxytoca 176877. Briefly: Broth microdilution MIC (strain enzymes: SHV-105). The class given is cell-based. To be noted: alone.
Another data set has as its system K. oxytoca 496 #2. Put plainly: Broth microdilution MIC (strain enzymes: SHV-105, TEM-1). The format is cell-based. The following applies: alone.
A further data set concerns K. pneumoniae 115468. Briefly: Broth microdilution MIC (strain enzymes: TEM-1). The format is cell-based. The following applies: alone.
In the next data set the test system is K. pneumoniae 153239. Put plainly: Broth microdilution MIC (strain enzymes: SHV-11, TEM-1). The following applies: alone. The format is cell-based.
The next data set has as its system K. pneumoniae 304487. Briefly: Broth microdilution MIC (strain enzymes: SHV-12,TEM-1). The format is cell-based. To be noted: alone.
For another data set, the system named is K. pneumoniae 329633. Briefly: Broth microdilution MIC (strain enzymes: SHV-5, TEM-1). To be noted: alone. The class given is cell-based.
A further data set relates to K. pneumoniae 11/23 LF#2. Briefly: microbe, parasite or virus in culture. The following applies: alone. The class given is cell-based.
Another data set deals with K. pneumoniae ESBL 10. Briefly: Broth microdilution MIC (strain enzymes: SHV-12, TEM-1). The following applies: alone. The format is cell-based.
Another data set deals with K. pneumoniae ESBL 8 #1. Put plainly: Broth microdilution MIC (strain enzymes: TEM-1, SHV-12). To be noted: alone. The format is cell-based.
For another data set, the system named is K. pneumoniae ESBL 8 #2. Put plainly: Broth microdilution MIC (strain enzymes: SHV-12, TEM-1). The class given is cell-based. To be noted: alone.
The next data set has as its system K. pneumoniae KI (KCl). Put plainly: Broth microdilution MIC (strain enzymes: TEM-10). To be noted: alone. The format is cell-based.
The nature of data set [2]: Excipient screening: solubility in SEDDS excipients. The format is physicochemical. To be noted: thermodynamic from solid. The method, then: The solubility of Compound 1-ethanolate was evaluated in a series of pharmaceutically acceptable excipients that are commonly used to prepare self-emulsifying drug delivery systems (SEDDS) for oral drug delivery. This class of formulation results in a solid solution of drug substance and excipients that enable the delivery of the drug substance and prevents precipitation upon contact with aqueous environments (i.e. the stomach). The indicated quantity of Compound 1-ethanolate was weighed into a 3 mL screw top glass vial outfitted with a magnetic stir bar. The vial was transferred to a controlled temperature heating block and 100 μL aliquots of each excipient was added with stirring. After each addition, the sample was evaluated for dissolution of the drug substance and additional aliquots of excipient were added until a clear, colorless solution was obtained. Table 22 summarizes the solubility screening for 25 excipients.

As for `COCC1=C(C(=O)O)N2C(=O)[C@@H](NC(=O)/C(=N\OC)c3csc(N)n3)[C@H]2SC1` [Cefpodoxime, cefpodoxime, reference compound], in data set [1] (read-out: Cefpodoxime MIC50), the MIC50 is > 32 µg/mL. Moreover, the MIC90 in data set [1] (read-out: Cefpodoxime MIC90) was > 32 µg/mL.

As for `CC1=C(C(=O)O)N2C(=O)[C@@H](NC(=O)[C@H](N)c3ccccc3)[C@H]2SC1` [Cephalexin, cefalexin, reference compound], the “MIC of cefalexin (LEX)” value in the data set with E. coli 1924 was found to be 2 µg/mL; in the data set with E. coli 2806 it was 4 µg/mL; with E. coli 3174, 1 µg/mL; in the data set with E. coli 3327, 16 µg/mL; with E. coli SI-AIRT-4, 0.25 µg/mL; in the data set with E. coli SI-NO36, 4 µg/mL. Besides, the “MIC of cefalexin (LEX)” value with E. coli SI-PBLII was 2 µg/mL; in the data set with E. coli SI-V502 it was 2 µg/mL; with E. coli 25922, 0.5 µg/mL; in the data set on K. oxytoca 176877 it was 8 µg/mL; in the data set with K. oxytoca 496 #2, 16 µg/mL; in the data set on K. pneumoniae 115468, 8 µg/mL. For the same molecule, the “MIC of cefalexin (LEX)” value with K. pneumoniae 153239 stood at 2 µg/mL; in the data set on K. pneumoniae 304487 it was 8 µg/mL; in the data set on K. pneumoniae 329633, 16 µg/mL; with K. pneumoniae 11/23 LF#2, 2 µg/mL; with K. pneumoniae ESBL 10, 16 µg/mL; with K. pneumoniae ESBL 8 #1, 16 µg/mL. The “MIC of cefalexin (LEX)” value in the data set on K. pneumoniae ESBL 8 #2 was determined as 16 µg/mL; in the data set on K. pneumoniae KI (KCl), 1 µg/mL. Also, the “Cephalexin MIC50” value in data set [1] (No BLI) is >32 µg/mL. Further, the “Cephalexin MIC90” value in data set [1] (No BLI) is >32 µg/mL.

For the molecule `CCOB1Oc2c(cccc2C(=O)OCOC(=O)C(CC)CC)C[C@@H]1NC(=O)CC` [Compound 1-ethanolate, ((2-ethylbutanoyl)oxy)methyl (R)-2-ethoxy-3-propionamido-3,4-dihydro-2H-benzo[e][1,2]oxaborinine-8-carboxylate], the solubility in data set [2] (50 °C, oil or lipid, Labrafil M1944CS (Oleoyl polyoxyl-6 glycerides)) is > 140 mg/mL; in [2] (50 °C, oil or lipid, Labrafil M2125C5 (Linoleoyl polyoxyl-6 glycerides)), > 152 mg/mL; in data set [2] (50 °C, oil or lipid, Plurol Oleique CC497 (Polyglyceryl-3 dioleate)), > 375 mg/mL; in data set [2] (50 °C, organic solvent or mixture, Gelucire 44/14 (Lauroyl polyoxyl-32 glycerides)) it was > 284 mg/mL; in data set [2] (50 °C, organic solvent or mixture, Kolliphor EL (Polyoxyl 35 hydrogenated castor oil)), > 376 mg/mL; in data set [2] (50 °C, organic solvent or mixture, Kolliphor RH (PEG-40 Hydrogenated Castor Oil)) it was ~172 mg/mL (≈ 410 mM). Moreover, the solubility in data set [2] (50 °C, organic solvent or mixture, Labrasol (Caprylocaproyl polyoxyl-8 glycerides)) is > 585 mg/mL; in data set [2] (50 °C, organic solvent or mixture, Polysorbate 80 (Polyoxyethylene (20) sorbitan monooleate)) it was > 238 mg/mL; in [2] (Capmul MCM (Caprylic/capric mono- & diglycerides), 50 °C, oil or lipid) it was > 351 mg/mL; in data set [2] (Ethanol, 50 °C, organic solvent or mixture), > 568 mg/mL; in data set [2] (Glycerol, 50 °C, organic solvent or mixture), < 55.8 mg/mL; in [2] (Lauroglycol (Propylene Glycol Monolaurate), neat excipient, 50 °C, oil or lipid), > 292 mg/mL. Besides, the solubility in data set [2] (Maisine CC (glyceryl monolinoleate), 50 °C, oil or lipid) is > 368 mg/mL; in data set [2] (Myrj 52 (PEG-40 Stearate), neat excipient, 50 °C, organic solvent or mixture) it was > 277 mg/mL; in data set [2] (PEG-400, 50 °C, organic solvent or mixture, PEG-400, 50° C.), > 498 mg/mL; in data set [2] (PEG-1500, 50 °C, organic solvent or mixture, PEG-1500, 50° C.) it was > 382 mg/mL; in data set [2] (PEG-3350, 65 °C, organic solvent or mixture, PEG-3350, 65° C.) it was > 280 mg/mL; in data set [2] (Peceol (Glyceryl monooleate), neat excipient, 50 °C, oil or lipid), > 413 mg/mL. Also, the solubility was > 419 mg/mL in data set [2] (Phosal 50 PG (50% PC and propylene glycol), 50 °C, oil or lipid); > 225 mg/mL in data set [2] (Poloxamer 188, neat excipient, 65 °C, organic solvent or mixture, Poloxamer 188); > 1210 mg/mL in data set [2] (Propylene Glycol, 50 °C, organic solvent or mixture); > 227 mg/mL in data set [2] (Span 20 (Sorbitan monolaurate), neat excipient, 50 °C, organic solvent or mixture); > 276 mg/mL in data set [2] (Span 80, 50 °C, organic solvent or mixture, Span 80, 50° C.); > 229 mg/mL in data set [2] (TPGS, neat excipient, 50 °C, organic solvent or mixture). Also, in [2] (Triacetin (glycerin triacetate), 50 °C, organic solvent or mixture), the solubility was > 84.2 mg/mL.
